Measured values as given in patent US4559323A, “A41030 Antibiotics” (Eli Lilly and Company, priority 1984, dated 1985).
Read-outs that look alike come from different tables or passages of the source.

Experiments:
[1] = Electrometric titration (pKa); type: physicochemical; settings: electrometric titration in 66% dimethylformamide in water
Solubility in solvents = type: physicochemical; settings: solvents as named
Excerpt: The seven antibiotic factors are recovered from the fermentation and are obtained as a mixture, the A41030 complex. It will be recognized that the ratio of the factors in the A41030 complex will vary, depending upon the fermentation conditions used. The individual factors […], and G are separated and isolated as individual compounds, as hereinafter described.

Staphylococcus aureus = assay: Agar-dilution MIC; type: cell-based; settings: Table 17, 24 hours
Hemophilus influenzae = assay: Agar-dilution MIC; type: cell-based; settings: Table 17, 24 hours
[2] = tested on: Staphylococcus epidermidis; assay: Agar-dilution MIC; type: cell-based; settings: Table 17; 24 hours; Staphylococcus epidermidis EPI1
Excerpt: (§1) The agar-dilution procedure described by the International Collaborative study (ICS) group was used to determine the minimum inhibitory concentrations (MIC's).

Streptococcus pneumoniae = assay: Agar-dilution MIC; type: cell-based; settings: Table 17; 24 hours; Streptococcus pneumoniae Park I
Excerpt: as §1

Streptococcus pyogenes = assay: Agar-dilution MIC; type: cell-based; settings: Table 17; 24 hours; Streptococcus pyogenes C203
Excerpt: as §1

[3] = tested on: Streptococcus sp. (Group D); assay: Agar-dilution MIC; type: cell-based; settings: Table 17, 24 hours
Excerpt: as §1

Bacteroides fragilis = assay: Agar-dilution MIC (anaerobes); type: cell-based; settings: Table 14
Excerpt: as §1

B. thetaiotaomicron = type: cell-based; settings: Table 14; Bacteroides thetalotaomicron 1438
Excerpt: as §1

Propionibacterium acnes = assay: Agar-dilution MIC (anaerobes); type: cell-based; settings: Table 14; Propionibacterium acnes 79
Excerpt: Antibiotic A41030 factors A, B and C have also been tested and found to be active against a genus of anaerobic bacteria identified as Propionibacterium acnes.

Clostridium difficile [4] = type: cell-based
Excerpt: The A41030 antibiotic factors A, B, C, D, E, F, and G, are also active against a number of strains of Clostridium difficile, as determined by the agar-dilution method.

Clostridium perfringens = type: cell-based; settings: Table 14; Clostridium perfringens 81
Clostridium septicum = assay: Agar-dilution MIC (anaerobes); type: cell-based; settings: Table 14; Clostridium septicum 1128
Eubacterium aerofaciens = assay: Agar-dilution MIC (anaerobes); type: cell-based; settings: Table 14; Eubacterium aerofaciens 1235
Peptococcus prevoti = assay: Agar-dilution MIC (anaerobes); type: cell-based; settings: Table 14; Peptococcus prevoti 1281
[5] = tested on: Peptostreptococcus anaerobius; assay: Agar-dilution MIC (anaerobes); type: cell-based; settings: Table 14; Peptostreptococcus anaerobius 1428
[6] = tested on: Peptostreptococcus intermedius; assay: Agar-dilution MIC (anaerobes); type: cell-based; settings: Table 14; Peptostreptococcus intermedius 1264
[7] = tested on: Bacteroides melaninogenicus; assay: Agar-dilution MIC (anaerobes); type: cell-based; settings: Table 14; Bacteroides melaninogenicus 2736
Fusobacterium symbiosum = assay: Agar-dilution MIC (anaerobes); type: cell-based; settings: Table 14; Fusobacterium symbiosum 1470
[8] = tested on: Fusobacterium necrophorum; assay: Agar-dilution MIC (anaerobes); type: cell-based; settings: Table 14; Fusobacterium necrophorum 6054A
Salmonella typhi = assay: Agar-dilution MIC; type: cell-based; settings: Table 17, 24 hours
S. pneumoniae = assay: Experimental bacterial infection in mice, subcutaneous ED50; type: in vivo; settings: two doses subcutaneously
Method: (§2) All of the A41030 factors tested have shown in vivo antimicrobial activity against experimental bacterial infections. When two doses of test compound were administered subcutaneously to mice in illustrative infections, the activity observed is measured as an ED50 value [effective dose in mg./kg. to protect fifty percent of the test animals: See Warren Wick, et al., J. Bacteriol. 81, 233-235 (1961)].

S. pyogenes = assay: as above; type: in vivo; settings: two doses subcutaneously
Method: as §2

Staph. aureus = assay: as above; type: in vivo; settings: two doses subcutaneously
Method: as §2

Bacteroides corrodens = assay: Agar-dilution MIC (anaerobes); type: cell-based; settings: Table 14; Bacteroides corrodens 1874
Bacteroides vulgatis = assay: Agar-dilution MIC (anaerobes); type: cell-based; settings: Table 14; Bacteroides vulgatis 1211
Clostridium difficile [9] = type: cell-based; settings: Table 14; Clostridium difficile 2994
[10] = tested on: Peptococcus asaccharolyticus; assay: Agar-dilution MIC (anaerobes); type: cell-based; settings: Table 14; Peptococcus asaccharolyticus 1302
[11] = Table 16, C. difficile WAL-2112
[12] = Table 16, C. difficile WAL-3657
[13] = Table 16, C. difficile WAL-4268

A41030 factor E
pKa, first titratable group [1]: about 5.8
pKa, second titratable group [1]: ~7.7
Solubility (Solubility in solvents): soluble in the same solvents as factor A
MIC (Staphylococcus aureus; Staphylococcus aureus 3055): 0.125 µg/mL
MIC (Staphylococcus aureus; Staphylococcus aureus S13E): 0.25 µg/mL
MIC (Staphylococcus aureus; Staphylococcus aureus V41): 0.25 µg/mL
MIC (Staphylococcus aureus; Staphylococcus aureus X400): 0.25 µg/mL
MIC (Hemophilus influenzae; Haemophilus influenzae 76): 8 µg/mL
MIC (Hemophilus influenzae; Haemophilus influenzae C.L.): 8 µg/mL
MIC [2]: 0.25 µg/mL
MIC (Streptococcus pneumoniae): 0.25 µg/mL
MIC (Streptococcus pyogenes): 0.25 µg/mL
MIC ([3]; Streptococcus sp. Group D 9960): 1 µg/mL
MIC ([3]; Streptococcus sp. Group D X66): 1 µg/mL
MIC (Bacteroides fragilis; Bacteroides fragilis 111): 64 µg/mL
MIC (Bacteroides fragilis; Bacteroides fragilis 1877): 32 µg/mL
MIC (Bacteroides fragilis; Bacteroides fragilis 1936B): 64 µg/mL
MIC (B. thetaiotaomicron): 64 µg/mL
MIC (Propionibacterium acnes): 0.5 µg/mL
MIC (Clostridium difficile [4]; Table 16, C. difficile 78): 0.5 µg/mL
MIC (Clostridium difficile [4]; Table 16, C. difficile 107B): 0.5 µg/mL
MIC (Clostridium difficile [4]; Table 16, C. difficile 111F): 0.5 µg/mL
MIC (Clostridium difficile [4]; Table 16, C. difficile 1153): 1.0 µg/mL
MIC (Clostridium difficile [4]; Table 16, C. difficile 2634): 1.0 µg/mL
MIC (Clostridium difficile [4]; Table 16, C. difficile 3424-5B): 0.5 µg/mL
MIC (Clostridium difficile [4]; Table 16, C. difficile 3816): 0.5 µg/mL
MIC (Clostridium difficile [4]; Table 16, C. difficile 3950): 0.5 µg/mL
MIC (Clostridium difficile [4]; Table 16, C. difficile 6890): 0.5 µg/mL
MIC (Clostridium difficile [4]; Table 16, C. difficile 8484): 0.5 µg/mL
MIC (Clostridium difficile [4]; Table 16, C. difficile A-194): 0.5 µg/mL
MIC (Clostridium difficile [4]; Table 16, C. difficile A-195): 0.5 µg/mL
MIC (Clostridium difficile [4]; Table 16, C. difficile A-196): 1.0 µg/mL
MIC (Clostridium difficile [4]; Table 16, C. difficile A-279): 0.5 µg/mL
MIC (Clostridium difficile [4]; Table 16, C. difficile A-280): 0.5 µg/mL
MIC (Clostridium difficile [4]; Table 16, C. difficile A-281): 1.0 µg/mL
MIC (Clostridium difficile [4]; [11]): 0.5 µg/mL
MIC (Clostridium difficile [4]; [12]): 0.5 µg/mL
MIC (Clostridium difficile [4]; [13]): 0.5 µg/mL
MIC (Clostridium perfringens): 1.0 µg/mL
MIC (Clostridium septicum): 0.5 µg/mL
MIC (Eubacterium aerofaciens): 0.5 µg/mL
MIC (Peptococcus prevoti): 32 µg/mL
MIC [5]: 32 µg/mL
MIC [6]: 32 µg/mL
MIC [7]: 32 µg/mL
MIC (Fusobacterium symbiosum): 1.0 µg/mL
MIC [8]: 0.5 µg/mL
MIC (Salmonella typhi; Salmonella typhi 1335): > 128 µg/mL
MIC (Salmonella typhi; Salmonella typhi X514): > 128 µg/mL
ED50 (S. pneumoniae): 3.11 mg/kg
ED50 (S. pyogenes): 3.54 mg/kg
ED50 (Staph. aureus): < 0.31 mg/kg
MIC (Bacteroides corrodens): 64 µg/mL
MIC (Bacteroides vulgatis): 32 µg/mL
MIC (Clostridium difficile [9]): 0.5 µg/mL
MIC [10]: ≤ 0.25 µg/mL

A41030 factor F
pKa, first titratable group [1]: about 5.4
pKa, second titratable group [1]: ~7.1
Solubility (Solubility in solvents): soluble in the same solvents as factor A
MIC (Staphylococcus aureus; Staphylococcus aureus 3055): 0.5 µg/mL
MIC (Staphylococcus aureus; Staphylococcus aureus S13E): 1 µg/mL
MIC (Staphylococcus aureus; Staphylococcus aureus V41): 0.5 µg/mL
MIC (Staphylococcus aureus; Staphylococcus aureus X400): 1 µg/mL
MIC (Hemophilus influenzae; Haemophilus influenzae 76): 32 µg/mL
MIC (Hemophilus influenzae; Haemophilus influenzae C.L.): 32 µg/mL
MIC [2]: 0.25 µg/mL
MIC (Streptococcus pneumoniae): 2 µg/mL
MIC (Streptococcus pyogenes): 2 µg/mL
MIC ([3]; Streptococcus sp. Group D 9960): 4 µg/mL
MIC ([3]; Streptococcus sp. Group D X66): 4 µg/mL
MIC (Bacteroides fragilis; Bacteroides fragilis 111): 32 µg/mL
MIC (Bacteroides fragilis; Bacteroides fragilis 1877): 32 µg/mL
MIC (Bacteroides fragilis; Bacteroides fragilis 1936B): 32 µg/mL
MIC (B. thetaiotaomicron): 64 µg/mL
MIC (Propionibacterium acnes): 1.0 µg/mL
MIC (Clostridium difficile [4]): 1 µg/mL
MIC (Clostridium difficile [4]; Table 16, C. difficile 78): 1.0 µg/mL
MIC (Clostridium difficile [4]; Table 16, C. difficile 107B): 1.0 µg/mL
MIC (Clostridium difficile [4]; Table 16, C. difficile 111F): 2 µg/mL
MIC (Clostridium difficile [4]; Table 16, C. difficile 1153): 2 µg/mL
MIC (Clostridium difficile [4]; Table 16, C. difficile 2634): 2 µg/mL
MIC (Clostridium difficile [4]; Table 16, C. difficile 3424-5B): 1.0 µg/mL
MIC (Clostridium difficile [4]; Table 16, C. difficile 3816): 1.0 µg/mL
MIC (Clostridium difficile [4]; Table 16, C. difficile 3950): 1.0 µg/mL
MIC (Clostridium difficile [4]; Table 16, C. difficile 6890): 1.0 µg/mL
MIC (Clostridium difficile [4]; Table 16, C. difficile 8484): 1.0 µg/mL
MIC (Clostridium difficile [4]; Table 16, C. difficile A-194): 1.0 µg/mL
MIC (Clostridium difficile [4]; Table 16, C. difficile A-195): 1.0 µg/mL
MIC (Clostridium difficile [4]; Table 16, C. difficile A-196): 2 µg/mL
MIC (Clostridium difficile [4]; Table 16, C. difficile A-279): 1.0 µg/mL
MIC (Clostridium difficile [4]; Table 16, C. difficile A-280): 1.0 µg/mL
MIC (Clostridium difficile [4]; Table 16, C. difficile A-281): 2 µg/mL
MIC (Clostridium difficile [4]; [11]): 1.0 µg/mL
MIC (Clostridium difficile [4]; [12]): 1.0 µg/mL
MIC (Clostridium difficile [4]; [13]): 1.0 µg/mL
MIC (Clostridium perfringens): 1.0 µg/mL
MIC (Clostridium septicum): 1.0 µg/mL
MIC (Eubacterium aerofaciens): 1.0 µg/mL
MIC (Peptococcus prevoti): 32 µg/mL
MIC [5]: 32 µg/mL
MIC [6]: 1.0 µg/mL
MIC [7]: 1.0 µg/mL
MIC (Fusobacterium symbiosum): 1.0 µg/mL
MIC [8]: 1.0 µg/mL
MIC (Salmonella typhi; Salmonella typhi 1335): > 128 µg/mL
MIC (Salmonella typhi; Salmonella typhi X514): > 128 µg/mL
ED50 (S. pneumoniae): > 5.0 mg/kg
ED50 (S. pyogenes): > 5.0 mg/kg
ED50 (Staph. aureus): < 0.31 mg/kg
MIC (Bacteroides corrodens): 32 µg/mL
MIC (Bacteroides vulgatis): 32 µg/mL
MIC [10]: ≤ 0.25 µg/mL
